# In ChEMBL document CHEMBL5291721, “A preclinical secondary pharmacology resource illuminates target-adverse drug reaction associations of marketed drugs” (Nat Commun, 2023):
# Columns and labels:
# [1] = biological target: T1, Muscarinic acetylcholine receptor M1 (Homo sapiens, UniProt P11229)
# T1 sequence (P11229 whole entry): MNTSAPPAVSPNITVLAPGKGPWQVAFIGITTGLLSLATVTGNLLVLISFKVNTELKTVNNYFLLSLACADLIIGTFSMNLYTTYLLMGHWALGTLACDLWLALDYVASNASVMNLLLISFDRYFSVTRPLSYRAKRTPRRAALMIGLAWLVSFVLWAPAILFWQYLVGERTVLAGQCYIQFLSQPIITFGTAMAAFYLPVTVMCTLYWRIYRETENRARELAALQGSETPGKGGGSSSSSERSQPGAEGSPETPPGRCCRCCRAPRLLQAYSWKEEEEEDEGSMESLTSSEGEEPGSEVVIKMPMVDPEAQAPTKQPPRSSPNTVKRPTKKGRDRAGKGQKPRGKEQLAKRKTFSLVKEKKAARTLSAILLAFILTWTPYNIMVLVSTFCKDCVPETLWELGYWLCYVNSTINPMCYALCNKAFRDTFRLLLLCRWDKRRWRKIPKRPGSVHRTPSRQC
# [2] = biological target: T2, Retinoic acid receptor alpha (Homo sapiens, UniProt P10276); assay type: functional, cell-based
# T2 sequence (P10276 whole entry): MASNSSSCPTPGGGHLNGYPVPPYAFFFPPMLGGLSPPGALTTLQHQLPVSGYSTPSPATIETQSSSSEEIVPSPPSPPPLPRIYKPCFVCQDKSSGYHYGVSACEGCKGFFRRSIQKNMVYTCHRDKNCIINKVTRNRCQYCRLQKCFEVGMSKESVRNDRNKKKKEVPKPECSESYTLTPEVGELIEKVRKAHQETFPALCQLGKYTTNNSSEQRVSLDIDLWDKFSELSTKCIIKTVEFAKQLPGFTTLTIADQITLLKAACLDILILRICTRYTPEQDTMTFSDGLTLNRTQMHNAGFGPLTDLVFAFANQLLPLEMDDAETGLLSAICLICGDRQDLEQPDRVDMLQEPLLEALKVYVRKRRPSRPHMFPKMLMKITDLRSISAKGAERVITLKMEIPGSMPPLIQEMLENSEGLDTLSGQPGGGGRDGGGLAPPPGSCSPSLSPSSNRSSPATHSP
# [3] = biological target: T2, Retinoic acid receptor alpha; assay type: functional, cell-based; remark: listed apart in the source
# Bile acid receptor = biological target: T3, Bile acid receptor (Homo sapiens, UniProt Q96RI1); assay type: functional
# T3 sequence (Q96RI1 whole entry): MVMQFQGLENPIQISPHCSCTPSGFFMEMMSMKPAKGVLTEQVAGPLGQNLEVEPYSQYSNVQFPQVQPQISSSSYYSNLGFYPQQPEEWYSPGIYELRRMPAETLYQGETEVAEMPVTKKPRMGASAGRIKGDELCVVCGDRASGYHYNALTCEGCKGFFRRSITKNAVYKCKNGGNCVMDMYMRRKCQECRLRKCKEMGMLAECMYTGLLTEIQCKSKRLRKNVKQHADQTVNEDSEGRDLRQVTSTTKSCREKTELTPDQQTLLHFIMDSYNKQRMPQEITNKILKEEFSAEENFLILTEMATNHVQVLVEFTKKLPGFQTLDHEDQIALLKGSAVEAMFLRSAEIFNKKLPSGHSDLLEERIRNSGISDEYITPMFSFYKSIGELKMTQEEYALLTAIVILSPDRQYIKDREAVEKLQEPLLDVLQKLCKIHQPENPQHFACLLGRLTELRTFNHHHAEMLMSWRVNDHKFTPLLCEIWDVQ
# [4] = biological target: T4, Nuclear receptor subfamily 1 group I member 3 (Homo sapiens, UniProt Q14994); assay type: functional
# T4 sequence (Q14994 whole entry): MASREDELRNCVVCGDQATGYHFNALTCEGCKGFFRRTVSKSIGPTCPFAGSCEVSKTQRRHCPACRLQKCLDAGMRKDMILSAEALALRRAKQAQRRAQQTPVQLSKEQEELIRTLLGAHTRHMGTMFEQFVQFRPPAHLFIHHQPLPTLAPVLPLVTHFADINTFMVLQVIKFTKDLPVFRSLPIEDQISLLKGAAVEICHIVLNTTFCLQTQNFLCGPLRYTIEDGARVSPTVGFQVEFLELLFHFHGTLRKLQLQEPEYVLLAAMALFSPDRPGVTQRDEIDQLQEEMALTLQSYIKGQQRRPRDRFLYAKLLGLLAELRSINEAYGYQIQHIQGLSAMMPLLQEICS
# [5] = biological target: T5, Oxysterols receptor LXR-alpha (Homo sapiens, UniProt Q13133); assay type: functional
# T5 sequence (Q13133 whole entry): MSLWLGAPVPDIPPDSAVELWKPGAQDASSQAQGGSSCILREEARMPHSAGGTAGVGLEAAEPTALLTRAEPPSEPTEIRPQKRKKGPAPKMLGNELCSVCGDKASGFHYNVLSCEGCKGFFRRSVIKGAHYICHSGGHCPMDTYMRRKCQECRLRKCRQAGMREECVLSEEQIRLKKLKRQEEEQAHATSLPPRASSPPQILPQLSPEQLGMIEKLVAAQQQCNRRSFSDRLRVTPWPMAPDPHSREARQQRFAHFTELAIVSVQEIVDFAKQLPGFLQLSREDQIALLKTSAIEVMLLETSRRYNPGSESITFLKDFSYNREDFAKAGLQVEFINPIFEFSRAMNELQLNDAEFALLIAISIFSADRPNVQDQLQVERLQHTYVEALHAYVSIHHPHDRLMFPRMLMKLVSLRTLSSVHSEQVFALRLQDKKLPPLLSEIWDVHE
# [6] = biological target: T6, Peroxisome proliferator-activated receptor alpha (Homo sapiens, UniProt Q07869); assay type: functional
# T6 sequence (Q07869 whole entry): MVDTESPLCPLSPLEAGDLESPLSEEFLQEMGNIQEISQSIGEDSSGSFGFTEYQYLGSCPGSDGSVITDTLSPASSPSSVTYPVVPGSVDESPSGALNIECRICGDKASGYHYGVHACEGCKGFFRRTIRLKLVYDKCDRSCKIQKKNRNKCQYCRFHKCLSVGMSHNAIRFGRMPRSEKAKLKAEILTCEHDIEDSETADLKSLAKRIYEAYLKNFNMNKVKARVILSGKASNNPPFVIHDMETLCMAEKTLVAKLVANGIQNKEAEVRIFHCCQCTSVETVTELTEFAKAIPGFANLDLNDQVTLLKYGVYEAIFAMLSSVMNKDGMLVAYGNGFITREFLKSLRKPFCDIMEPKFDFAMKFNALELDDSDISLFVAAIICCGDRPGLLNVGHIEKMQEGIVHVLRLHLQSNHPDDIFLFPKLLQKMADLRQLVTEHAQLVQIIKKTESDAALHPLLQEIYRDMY
# [7] = biological target: Hydroxycarboxylic acid receptor 2 (Homo sapiens, UniProt Q8TDS4)
# [8] = biological target: 5-hydroxytryptamine receptor 2B (Homo sapiens, UniProt P41595)
# Further: assay procedure not described here.
# Sequence of 5-hydroxytryptamine receptor 2B (P41595 whole entry): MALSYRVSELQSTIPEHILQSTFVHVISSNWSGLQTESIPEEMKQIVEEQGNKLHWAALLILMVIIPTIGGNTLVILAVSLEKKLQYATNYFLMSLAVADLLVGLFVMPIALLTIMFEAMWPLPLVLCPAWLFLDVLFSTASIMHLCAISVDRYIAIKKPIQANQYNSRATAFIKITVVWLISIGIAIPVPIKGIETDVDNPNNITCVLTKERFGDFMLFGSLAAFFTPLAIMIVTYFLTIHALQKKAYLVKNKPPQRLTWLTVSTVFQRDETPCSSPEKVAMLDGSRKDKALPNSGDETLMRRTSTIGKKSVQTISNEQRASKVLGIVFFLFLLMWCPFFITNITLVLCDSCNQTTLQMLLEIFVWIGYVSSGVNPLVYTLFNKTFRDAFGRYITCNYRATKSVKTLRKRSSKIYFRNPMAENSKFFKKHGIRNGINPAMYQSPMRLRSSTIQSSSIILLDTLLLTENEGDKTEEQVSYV
# Sequence of Hydroxycarboxylic acid receptor 2 (Q8TDS4 whole entry): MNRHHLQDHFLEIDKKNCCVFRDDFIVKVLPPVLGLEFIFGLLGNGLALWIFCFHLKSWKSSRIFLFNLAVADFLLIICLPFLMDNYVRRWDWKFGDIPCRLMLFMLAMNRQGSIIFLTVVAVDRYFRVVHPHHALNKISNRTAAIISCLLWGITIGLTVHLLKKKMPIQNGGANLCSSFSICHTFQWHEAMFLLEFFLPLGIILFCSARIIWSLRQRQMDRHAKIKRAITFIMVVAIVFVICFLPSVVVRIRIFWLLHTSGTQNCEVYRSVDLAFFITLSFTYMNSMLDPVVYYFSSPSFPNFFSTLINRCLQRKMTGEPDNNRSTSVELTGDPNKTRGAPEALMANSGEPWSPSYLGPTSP
structure (smiles),measurement,setting,value
O=C(Nc1cccc2c(=O)cc(-c3nnn[nH]3)oc12)c1ccc(OCCCCc2ccccc2)cc1,AC50,[1],28 µM
CC(/C=C1\SC(=S)N(CC(=O)O)C1=O)=C\c1ccccc1,AC50,[2],> 30 µM
same,AC50,[3],> 30 µM
same,AC50,Bile acid receptor,> 30 µM
same,AC50,[4],3.6 µM
same,AC50,[5],> 30 µM
same,AC50,[6],> 30 µM
CC1(C)S[C@@H]2[C@H](NC(=O)[C@H](N)c3ccc(O)cc3)C(=O)N2[C@H]1C(=O)O [AMOXICILLIN],AC50,[2],> 30 µM
same,AC50,[3],> 30 µM
same,AC50,Bile acid receptor,> 30 µM
same,AC50,[4],15 µM
same,AC50,[5],19 µM
same,AC50,[6],> 30 µM
Clc1cccc(Cl)c1N=C1NCCN1 [CLONIDINE],AC50,[7],> 10 µM
CN1C[C@H](C(=O)N[C@]2(C)O[C@@]3(O)[C@@H]4CCCN4C(=O)[C@H](Cc4ccccc4)N3C2=O)C[C@@H]2c3cccc4[nH]cc(c34)C[C@H]21 [DIHYDROERGOTAMINE],AC50,[8],0.0444 µM
CCC(=O)O[C@@H](O[P@](=O)(CCCCc1ccccc1)CC(=O)N1C[C@H](C2CCCCC2)C[C@H]1C(=O)O)C(C)C [FOSINOPRIL],AC50,[1],> 30 µM
CC[C@@H](CO)NC(=O)[C@@H]1C=C2c3cccc4[nH]cc(c34)C[C@H]2N(C)C1 [METHYLERGONOVINE],AC50,[8],0.0054 µM
CN(C)c1cc(CNCC(C)(C)C)c(O)c2c1C[C@H]1C[C@H]3[C@H](N(C)C)C(O)=C(C(N)=O)C(=O)[C@@]3(O)C(O)=C1C2=O [OMADACYCLINE],AC50,[1],> 30 µM
COc1ccnc(C[S+]([O-])c2nc3ccc(OC(F)F)cc3[nH]2)c1OC (stereo not given) [PANTOPRAZOLE],AC50,[7],> 10 µM
CNC(=O)c1cc(Oc2ccc(NC(=O)Nc3ccc(Cl)c(C(F)(F)F)c3)c(F)c2)ccn1 [REGORAFENIB],AC50,[1],2.37 µM
same,AC50,[2],> 30 µM
same,AC50,[3],> 30 µM
same,AC50,Bile acid receptor,7.2 µM
same,AC50,[4],24 µM
same,AC50,[5],> 30 µM
same,AC50,[6],> 30 µM
CCOc1cc(CC(=O)N[C@@H](CC(C)C)c2ccccc2N2CCCCC2)ccc1C(=O)O [REPAGLINIDE],AC50,[2],> 30 µM
same,AC50,[3],> 30 µM
same,AC50,Bile acid receptor,6.5 µM
same,AC50,[4],5 µM
same,AC50,[5],> 30 µM
same,AC50,[6],> 30 µM
CCCN(CCC)CCc1cccc2c1CC(=O)N2 [ROPINIROLE],AC50,[8],13.4 µM
CC(=O)S[C@@H]1CC2=CC(=O)CC[C@]2(C)[C@H]2CC[C@@]3(C)[C@@H](CC[C@@]34CCC(=O)O4)[C@H]12 [SPIRONOLACTONE],AC50,[7],> 10 µM
CN1CCN(CCCN2c3ccccc3Sc3ccc(S(=O)(=O)N(C)C)cc32)CC1 [THIOPROPERAZINE],AC50,[1],3.24 µM
